Experiment [1] relates to OV90 ovarian cancer cells. Kind of experiment: Cell viability assay (MTT/resazurin), OV90. Particulars: Homo sapiens, OV-90, read-out: Antiproliferative Activity, GI50. It counts as cell-based. An excerpt:
(§1) Cancer cell lines derived from leukemia (MV4-11 and U937), breast (MCF7 (Rb-positive) and MDA-MB-231(Rb-negative)), and ovarian (A2780, OVCAR5, OAW28, OV90, Cov318, and Cov504) cancers, and glioblastoma (U87, T98G and U251) were acquired from the cell bank at Drug Discovery and Development, University of South Australia, and cultured according to the American Type Culture Collection (ATCC) recommendation in Roswell Park Memorial Institute (RPMI)-1640, Dulbecco’s Modified Eagle’s Medium (DMEM), or Minimum Essential Media (MEM), with 10% fetal bovine serum (Sigma-Aldrich, Castle Hill, NSW, Australia) within a humidified incubator at 37 °C in the presence of 5% CO2.
(§2) The MTT (Life Technologies, Mulgrave, VIC, Australia) and resazurin (Sigma-Aldrich) assays were used to determine the antiproliferative activities of the compounds initially at 1 µM against the cancer cell lines stated above.

Experiment [2] has as its system OVCAR5 cells. The experiment is described as follows: Annexin V/PI apoptosis assay, OVCAR5. The class given is cell-based. The conditions noted are these: 48 h. The method, then:
Annexin V-fluorescein isothiocyanate (FITC) apoptosis detection kit I (consisting of a ten-time stock solution of binding buffer, FITC–annexin V, and PI staining solution) was used to determine the effect of the compounds on cancer cell survival as previously reported. Briefly, six-well plates (Sigma-Aldrich, NSW, Australia) were seeded with about 1–2 × 10^5 cells/well in 2 mL growth medium, incubated at 37 °C and 5% CO2 overnight, treated with various concentrations of the test compounds, and incubated for 48 h. The wells were collected by trypsinization, transferred into FACS tubes, washed twice with 1 × PBS, and centrifuged at 300× g for 5 min. The pellets were then suspended in 100 µL of 1 × binding buffer and incubated in the dark with 3 µL of PI and 3 µL of FITC-conjugated annexin V solutions for 15 min. Finally, 200 µL of binding buffer was added to each sample and analyzed by the CytoFLEX cytometer. The extent of apoptotic cell death was quantified as the sum of the percentages of early apoptotic cells (annexin V-positive and PI-negative) and late apoptotic cells (both annexin–V- and PI-positive) and presented graphically as a contour diagram relative to the untreated control.

Experiment [3] concerns Cov504 ovarian cancer cells. The experiment is described as follows: Cell viability assay (MTT/resazurin), Cov504. It counts as cell-based. The conditions noted are these: read-out: Antiproliferative Activity, GI50.
Source text: as §1, §2

The test system of another experiment is T98G glioblastoma cells. Kind of experiment: Cell viability assay (MTT/resazurin), T98G. The class given is cell-based. Particulars: Homo sapiens, read-out: Antiproliferative Activity, GI50.
Source text: as §1, §2
For orientation: Alamar Blue is a resazurin reagent that responds to reducing activity.

The subject of a further experiment is A2780 cells. Kind of experiment: Cell cycle analysis by flow cytometry, A2780. The conditions noted are these: A2780, 2 µM, 48 h. It counts as cell-based. The procedure: (§3) The effect of the compounds on cell cycle distribution was evaluated following a previously reported method. Briefly, six-well plates (Sigma-Aldrich, NSW, Australia) were seeded with about 1–2 × 10^5 cells/well in 2 mL growth medium, incubated at 37 °C and 5% CO2 overnight, and treated with various concentrations of the test compounds and incubated for 48 h. The wells were collected by trypsinization, transferred into fluorescence-activating cell sorting (FACS) tubes, washed with 1 × phosphate-buffered saline (1 × PBS) twice, fixed in 70% (v/v) ice-cold ethanol for 15 min, and centrifuged at 300× g for 5 min. The cell pellets were then collected, stained with 200 µL of the cell cycle solution (comprising 50.0 μg/mL PI, 0.1 mg/mL RNase A, and 0.05% Triton X-100), and incubated for 1.5 h at room temperature in the dark. Finally, the DNA content was determined by a flow cytometer (CytoFLEX) and analyzed by CytExpert 2.1 software (Beckman Coulter, Brea, CA, USA).
For orientation: A flow cytometer gives signals particle by particle.

Experiment [4] deals with OAW28 ovarian cancer cells. The experiment is described as follows: Cell viability assay (MTT/resazurin), OAW28. It counts as cell-based. Particulars: Homo sapiens, OAW-28, read-out: Antiproliferative Activity, GI50.
Source text: as §1, §2

The target of another experiment is CDK2/cyclin E (CDK2E) (Homo sapiens, UniProt P24941). The experiment is described as follows: ADP-Glo kinase assay, CDK2/cyclin E. It counts as biochemical. Particulars: apparent Ki from IC50, ADP-Glo. The method, then: The luminescent ADP-Glo™ assay, which measures the amount of ADP formed in a kinase reaction as described previously, was used to determine the kinase inhibition profile of the compounds. […] Ki values were calculated from their corresponding IC50 values (the concentrations of inhibitors that inhibit the kinase activity by 50%) and the Michaelis–Menten constant (Km) of ATP for each kinase using the Cheng–Prusoff equation as previously stated. In brief, 1 μL of each concentration of the test compounds was added to the respective wells, and to it were added 1 μL of the kinases and their respective substrates, diluted to the desired concentration in kinase reaction buffer ([…] tris base pH 7.5, 20 mM MgCl2, 0.4 µM dithiothreitol, and 0.1 mg/mL bovine serum albumin), and the pH was adjusted by adding 1 μL of a two-fold diluted kinase reaction buffer. To initiate the kinase activity, 1 μL of ATP solution (the concentration varies depending on the type of kinase under investigation) was added to each well, and the mixture was incubated at room temperature (20 to 22 °C) for 30–60 min depending on the kinase being tested. The reaction was then halted, 5 μL of the ADP-Glo reagent was added to each well (removing any unreacted ATP), and it was incubated at room temperature for 40 min. Then, to each well, 10 μL of the kinase detection reagent containing luciferin was added, which was incubated once more at room temperature in the dark for 30 min and the luminescence was measured by an EnVision® multi-label plate reader with an integration time of 1.5 s per well. Positive controls (the wells without the inhibitor) and negative or blank controls (the wells without the inhibitor and the enzyme, but with 1 × kinase reaction buffer) were also determined in 2.5% DMSO.
The percentage of kinase inhibition was determined using the following equation: % Residual kinase activity=Luminescence in the presence of inhibitor−Luminescence of blank control/Luminescence in the absence of inhibitor−Luminescence of blank control×100%%kinase inhbition=100%−%Residual kinase activity
Km is defined as the concentration of ATP or the substrate required to produce 50% of the maximal reaction rate in the kinase reaction. Therefore, since we used the concentration of ATP and the substrate at their Km values, Ki simply equals IC50/2 assuming these inhibitors are ATP-competitive based on the Cheng–Prusoff equation: Ki = IC50/(1 + ([ATP]/Km(ATP))) where [ATP] is the ATP concentration used for the IC50 determination and Km(ATP) for each kinase was determined experimentally.

In experiment [5] the test system is OVCAR5 cells. Kind of experiment: Cell cycle analysis by flow cytometry, OVCAR5. The class given is cell-based. The conditions noted are these: 48 h. The method, then: as §3
Experiment [6] concerns OVCAR5 ovarian cancer cells. Kind of experiment: Cell viability assay (MTT/resazurin), OVCAR5. It counts as cell-based. The conditions noted are these: Homo sapiens, OVCAR-5, read-out: Antiproliferative Activity, GI50.
Source text: as §1, §2

Usually GI50 stands for the concentration that inhibits growth by half.

SMILES strings stand for the structures.

With `Cn1cc(-c2nc(Nc3cn[nH]c3)ncc2Cl)cn1` [Compound 15, 5-Chloro-4-(1-methyl-1H-pyrazol-4-yl)-N-(1H-pyrazol-4-yl)pyrimidin-2-amine], the GI50 in [1] came to 390 nM; in [3], 540 nM; in the experiment on T98G glioblastoma cells it was 380 nM; in experiment [4], 534 nM; in experiment [6], 150 nM. The viability at 0.5 µM in the experiment on OVCAR5 cells [2] (Homo sapiens, OVCAR-5, OVCAR5, 0.5 µM, read-out: Q1-LL, viable cells) stood at 67.4%. In addition, in the experiment on OVCAR5 cells [2] (Homo sapiens, OVCAR-5, OVCAR5, 2 µM, read-out: Q1-LL, viable cells), the viability at 2 µM came to 57.8%. Besides, the “apoptosis (annexin V positive, early + late)” value is recorded as 30% in the experiment on OVCAR5 cells [2] (OVCAR5, 0.5 µM) and 38% in the experiment on OVCAR5 cells [2] (OVCAR5, 2 µM). In addition, the S-phase cells is 26% with A2780 cells and 26% with OVCAR5 cells [5] (OVCAR5, 2 µM). For the same molecule, on CDK2/cyclin E (CDK2E), the Ki is 5 nM. The “increment in the subpopulation of G2/M cells compared to the vehicle control” value in the experiment with OVCAR5 cells [5] (OVCAR5, 0.5 µM) amounted to 39%. Besides, the G2/M cells in the experiment on OVCAR5 cells [5] (OVCAR5, 2 µM) amounted to 53%.
